The values below come from ChEMBL document CHEMBL1154433, “Synthesis of new substituted azetidinoyl and thiazolidinoyl-1,3,4-thiadiazino (6,5-b) indoles as promising anti-inflammatory agents” (Eur J Med Chem, 2008).

Type in all cases: functional
For experiment [1], the system named is Mus musculus. As to the kind of experiment: Analgesic activity in mouse assessed as protection against phenylquinone-induced writhing at 5 mg/kg, po administered 1 hr before phenylquinone challenge measured for 5 mins relative to controll.
For experiment [2], the system named is Rattus norvegicus. Nature of the experiment: Antiinflammatory activity in albino Charles-Foster rat assessed as inhibition of carrageenan-induced paw oedema at 10 mg/kg, po measured before 1 hr and after 3 hrs of carrageenan challenge relative to control.
Experiment [3] concerns Rattus norvegicus. Nature of the experiment: Antiinflammatory activity in albino Charles-Foster rat assessed as inhibition of carrageenan-induced paw oedema at 5 mg/kg, po measured before 1 hr and after 3 hrs of carrageenan challenge relative to control.
Experiment [4] relates to Rattus norvegicus. As to the kind of experiment: Antiinflammatory activity in albino Charles-Foster rat assessed as inhibition of carrageenan-induced paw oedema at 7.5 mg/kg, po measured before 1 hr and after 3 hrs of carrageenan challenge relative to control.
The subject of experiment [5] is Mus musculus. As to the kind of experiment: Analgesic activity in mouse assessed as protection against phenylquinone-induced writhing at 7.5 mg/kg, po administered 1 hr before phenylquinone challenge measured for 5 mins relative to controll.
For experiment [6], the system named is Mus musculus. As to the kind of experiment: Analgesic activity in mouse assessed as protection against phenylquinone-induced writhing at 10 mg/kg, po administered 1 hr before phenylquinone challenge measured for 5 mins relative to control.
The subject of experiment [7] is Rattus norvegicus. As to the kind of experiment: Antiinflammatory activity in albino Charles-Foster rat assessed as inhibition of carrageenan-induced paw oedema at 50 mg/kg, po measured before 1 hr and after 3 hrs of carrageenan challenge relative to control.

Take `COc1ccc2c(c1)c(CC(=O)O)c(C)n2C(=O)c1ccc(Cl)cc1` [INDOMETHACIN]: the Activity was 41.3% with Mus musculus [1], 59.25% in the experiment with Mus musculus [5] and 64.33% in the experiment with Mus musculus [6]. For the same compound, the inhibition in vivo at 10 mg/kg with Rattus norvegicus [2] turned out to be 93.2%. The inhibition in vivo at 5 mg/kg in the experiment with Rattus norvegicus [3] amounted to 52.2%. The inhibition in vivo at 7.5 mg/kg in the experiment with Rattus norvegicus [4] came to 63.1%. The inhibition in vivo at 50 mg/kg in the experiment with Rattus norvegicus [7] came to 52.2%.
